Reference: patent publication US6900200B2, “Tricyclic hydroxy carboxamides and derivatives thereof tocolytic oxytocin receptor antagonists” (Wyeth, priority 2001, dated 2005)

Biological target: T1, human oxytocin receptor (Homo sapiens, UniProt P30559)
T1 construct: host or cells: CHO cells, pcDNA3.1 vector
T1 sequence (P30559 1-389): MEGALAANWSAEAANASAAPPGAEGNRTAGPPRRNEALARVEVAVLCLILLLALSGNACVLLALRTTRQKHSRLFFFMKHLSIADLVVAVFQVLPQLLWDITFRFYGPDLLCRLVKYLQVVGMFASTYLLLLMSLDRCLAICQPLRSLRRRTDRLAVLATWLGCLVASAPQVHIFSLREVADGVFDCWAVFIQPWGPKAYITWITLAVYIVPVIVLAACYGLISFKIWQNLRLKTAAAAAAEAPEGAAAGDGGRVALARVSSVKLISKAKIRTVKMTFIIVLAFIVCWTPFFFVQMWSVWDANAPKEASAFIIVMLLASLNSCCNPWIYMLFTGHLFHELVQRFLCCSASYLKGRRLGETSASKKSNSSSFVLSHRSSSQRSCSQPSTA
Assay: Oxytocin binding in CHO cell membranes expressing human oxytocin receptors ([3H]oxytocin radioligand binding)
Settings: for inhibition at 0.1 µM: @ 100 nM, read-out: OT % inhibition @ 100 nM; for IC50: value printed in parentheses, read-out: OT (IC50)
Description: Oxytocin Binding in Chinese Hamster Ovary Cell Membranes Expressing Human Oxytocin Receptors
Chinese Hamster Ovary (CHO) cells stably transfected with the human oxytocin receptor (cf. Tanizawa et al., U.S. Pat. No. 5,466,584 (1995) to Rohto Pharmaceutical Co. Ltd., Osaka, Japan) were obtained from M. Thibonnier, Case Western Reserve University School of Medicine, Cleveland, Ohio.
A. Passaging and Amplification of Cells
CHO cells transfected with the human oxytocin receptors obtained from M. Thibonnier (pcDNA3.1 vector) are allowed to grow to confluency (approx. >90%) in T-150 flasks under sterile conditions, in a cell culture medium of F-12 Nutrient Mixture (HAM) with L-glutamine (Gibco Cat. #11765-054) containing 15 mM HEPES (Gibco Cat. #15630-080), 1% antibiotic/antimycotic (add 5 mL 100×, Gibco Cat. #15240-062 per 500 mL F-12), 400 μg/mL of Geneticin (add 4 mL of 50 mg/mL per 500 mL F-12) and 10% Fetal Bovine Serum (Qualified, heat inactivated, Gibco Cat. #16140-063). The medium is removed by aspiration and the cells are washed with 10 mL of Hank's Balanced Salt solution (Gibco Cat. #14175-095). The salt solution is removed by aspiration and the cells trypsinized with 5 mL of trypsin-EDTA (0.05% trypsin, 0.53 mM EDTA-4Na, Gibco Cat. #25300-070) for 1 min. The trypsin is removed by aspiration and the cells dislodged by tapping. Cell Culture medium (e.g. 30 mL for 1:30 split) is immediately added and mixed well to inactivate trypsin. 1 mL of detached cells is added to new culture flasks containing fresh Cell Culture medium (e.g. into 25 mL per T-150 flask), and mixed gently. The cells are incubated at 37° C. in 5% CO2. The medium is changed at 3 to 4 days interval (or as appropriate). The cells grow to confluency (approx. >75%-95%) within 7-8 days. All steps are done under sterile conditions.
The cells are washed twice gently with Hank's Balanced Salt solution (e.g., use 10 mL per T-1 50 flask). The excess solution is removed and the cells bathed for 15-30 min. in an enzyme-free Cell Dissociation Buffer (e.g., use 8 mL Hank's Based, Gibco Cat. #13150-016 per T-150 flask) until cells are loosened. The contents are transferred to centrifuge tubes (50 mL size) kept in ice bath. All subsequent steps are done at 4° C. The tubes are centrifuged at 300×g for 15 min (1380 rpm on SORVAL, Model RT6000D, using rotor for 50 mL tubes). The supernatant is discarded and the cells suspended in homogenizing buffer (10 mM Tris-HCl containing 0.25 M sucrose and 1 mM EDTA, pH 7.4) ensuring that the volume of the buffer is about ten times the volume of the cell pellet. The cells are pooled into a centrifuge tube (50 mL) and homogenized with a Polytron at setting 6 for 10 sec. The homogenate is transferred into a Potter-Elvjehm homogenizer and homogenized with 3 strokes. The homogenate is centrifuged at 1500×g for 10 min at 4° C. (3100 rpm using SORVAL, model RT6000D, using rotor for 50 mL tubes). The pellet is discarded. The supernatant is centrifuged at 100,000×g for 60 min. at 4° C. (Beckman L8-80M ultracentrifuge; spin at 37,500 rpm with rotor type 70 Ti for 50 mL tubes; 38,000 rpm with type 80Ti for 15 mL tubes; or 35,800 rpm with rotor type 45Ti). The supernantant is discarded and the pellet suspended in 3 to 4 mL of Tris buffer (50 mM TRIS—HCl, pH 7.4). The protein content is estimated by the Bradford or Lowry method. The volume of the membrane suspension is adjusted with the membrane buffer (50 mM Tris-HCl containing 0.1% BSA and 0.1 mM PMSF) to give 3.0 mg/mL (or as appropriate) of protein. The membranes are aliquoted and stored at −70° C.
C. Radioligand Binding Assay
In wells of a 96-well format microtiter plate, is added 90, 110 or 130 μL (to make up a final volume of 200 μL) of assay buffer containing 50 mM of Tris-HCl (pH 7.4), […], 1 mg % aprotinin, 1 mg % leupeptin, 2 mg % 1,10-phenanthroline, 10 mg % trypsin inhibitor, and 0.1 mM PMSF. […]

Compound	inhibition at 0.1 µM [%]	IC50 [nM]
COc1ccccc1-c1ccc(C(=O)N2Cc3ccc(C(=O)N(C)C[C@H](O)CO)n3Cc3ccccc32)cc1C (single isomer, unassigned) [Example 15]	101	
COc1ccccc1-c1ccc(C(=O)N2Cc3ccc(C(=O)N(C)C[C@@H](O)CO)n3Cc3ccccc32)cc1C (single isomer, unassigned) [Example 16]	101	
COc1cc(C(=O)N2Cc3ccc(C(=O)N(C)C[C@@H](O)[C@H](O)[C@H](O)[C@@H](O)CO)n3Cc3ccccc32)ccc1-c1ccccc1C(F)(F)F (stereo in doubt) [Example 23, 10-{[2-Methoxy-2′-trifluoromethyl-[1,1′-biphenyl]-4-yl]carbonyl}-N-methyl-N-[(2R,3S,4R,5S)-2,3,4,5,6-pentahydroxyhexyl]-10,11-dihydro-5H-pyrrolo[2,1-c][1,4]benzodiazepine-3-carboxamide]		4.09
Cc1cc(C(=O)N2Cc3ccc(C(=O)N(CCO)CCO)n3Cc3ccccc32)ccc1-c1ccccc1C(F)(F)F [Example 1, 10-[(2-Methyl-2′-trifluoromethyl-[1,1′-biphenyl]-4-yl)carbonyl]-10,11-dihydro-5H-pyrrolo[2,1-c][1,4]benzodiazepine-3-carboxylic acid bis-(2-hydroxy-ethyl)-amide]		1.37
Cc1cc(C(=O)N2Cc3ccc(C(=O)N(C)CC(O)CO)n3Cc3ccccc32)ccc1-c1ccccc1C(F)(F)F (stereo not drawn) [Example 2, 10-[(2-Methyl-2′-trifluoromethyl-[1,1′-biphenyl]-4-yl)carbonyl]-10,11-dihydro-5H-pyrrolo[2,1-c][1,4]benzodiazepine-3-carboxylic acid (2,3-dihydroxy-propyl)-methyl-amide]		3.09
Cc1cc(C(=O)N2Cc3ccc(C(=O)NC(CO)(CO)CO)n3Cc3ccccc32)ccc1-c1ccccc1C(F)(F)F [Example 3, 10-[(2-Methyl-2′-trifluoromethyl-[1,1′-biphenyl]-4-yl)carbonyl]-10,11-dihydro-5H-pyrrolo[2,1-c][1,4]benzodiazepine-3-carboxylic acid (2-hydroxy-1,1-bis-hydroxymethyl-ethyl)-amide]		6.53
Cc1cc(C(=O)N2Cc3ccc(C(=O)N(C)C[C@H](O)[C@@H](O)[C@H](O)[C@H](O)CO)n3Cc3ccccc32)ccc1-c1ccccc1C(F)(F)F [Example 4, 10-[(2-Methyl-2′-trifluoromethyl-[1,1′-biphenyl]-4-yl)carbonyl]-10,11-dihydro-5H-pyrrolo[2,1-c][1,4]benzodiazepine-3-carboxylic acid methyl-((2S,3R,4R,5R)-2,3,4,5,6-pentahydroxy-hexyl)-amide]		3.43
Cc1cc(C(=O)N2Cc3ccc(C(=O)N4CCN(C[C@H](O)CO)CC4)n3Cc3ccccc32)ccc1-c1ccccc1C(F)(F)F [Example 5, (2S)-3-{4-[(10-{[2-Methyl-2′-trifluoromethyl-[1,1′-biphenyl]-4-yl]carbonyl}-10,11-dihydro-5H-pyrrolo[2,1-c][1,4]benzodiazepin-3-yl)carbonyl]piperazin-1-yl}propane-1,2-diol]		35.8
Cc1cc(C(=O)N2Cc3ccc(C(=O)N4CCN(C[C@@H](O)CO)CC4)n3Cc3ccccc32)ccc1-c1ccccc1C(F)(F)F [Example 6, (2R)-3-{4-[(10-{[2-Methyl-2′-trifluoromethyl-[1,1′-biphenyl]-4-yl]carbonyl}-10,11-dihydro-5H-pyrrolo[2,1-c][1,4]benzodiazepin-3-yl)carbonyl]piperazin-1-yl}propane-1,2-diol]		25.1
COCCN1CCN(C(=O)c2ccc3n2Cc2ccccc2N(C(=O)c2ccc(-c4ccccc4C(F)(F)F)c(C)c2)C3)CC1 [Example 7, Methyl 2-{4-[(10-{[2-methyl-2′-trifluoromethyl-[1,1′-biphenyl]-4-yl]carbonyl}-10,11-dihydro-5H-pyrrolo[2,1-c][1,4]benzodiazepin-3-yl)carbonyl]piperazin-1-yl}ethyl ether]		30.7
COC[C@H](O)CN1CCN(C(=O)c2ccc3n2Cc2ccccc2N(C(=O)c2ccc(-c4ccccc4C(F)(F)F)c(C)c2)C3)CC1 [Example 8, (2R)-1-Methoxy-3-{4-[(10-{[2-methyl-2′-trifluoromethyl-[1,1′-biphenyl]-4-yl]carbonyl}-10,11-dihydro-5H-pyrrolo[2,1-c][1,4]benzodiazepin-3-yl)carbonyl]piperazin-1-yl}propan-2-ol]		7.55
COC[C@@H](O)CN1CCN(C(=O)c2ccc3n2Cc2ccccc2N(C(=O)c2ccc(-c4ccccc4C(F)(F)F)c(C)c2)C3)CC1 [Example 9, [3-({4-[(2S)-2-Hydroxy-3-methoxypropyl]-1-piperazinyl}carbonyl)-5H-pyrrolo[2,1-c][1,4]benzodiazepin-10(11H)-yl][2-methyl-2′-trifluoromethyl-[1,1′-biphenyl]-4-yl]methanone]		26.7
COCC(CN(C)C(=O)c1ccc2n1Cc1ccccc1N(C(=O)c1ccc(-c3ccccc3C(F)(F)F)c(C)c1)C2)OC (stereo not drawn) [Example 10, N-(2,3-Dimethoxypropyl)-N-methyl-10-{[2-methyl-2′-trifluoromethyl-[1,1′-biphenyl]-4-yl]carbonyl}-10,11-dihydro-5H-pyrrolo[2,1-c][1,4]benzodiazepine-3-carboxamide]		5.31
Cc1cc(C(=O)N2Cc3ccc(C(=O)N(C)CC4COC(=O)O4)n3Cc3ccccc32)ccc1-c1ccccc1C(F)(F)F (stereo not drawn) [Example 11, 10-[(2-Methyl-2′-trifluoromethyl-[1,1′-biphenyl]-4-yl)carbonyl]-10,11-dihydro-5H-pyrrolo[2,1-c][1,4]benzodiazepine-3-carboxylic acid methyl-[(2-oxo-[1,3]dioxolan-4-yl)methyl]-amide]		3.66
Cc1cc(C(=O)N2Cc3ccc(C(=O)N(C)C[C@@H]4OC(=O)O[C@H]4[C@H](O)[C@H]4COC(=O)O4)n3Cc3ccccc32)ccc1-c1ccccc1C(F)(F)F [Example 12, N-[((4S,5S)-5-{(R)-Hydroxy[(4R)-2-oxo-1,3-dioxolan-4-yl]methyl}-2-oxo-1,3-dioxolan-4-yl)methyl]-N-methyl-10-{[2-methyl-2′-(trifluoromethyl)[1,1′-biphenyl]-4-yl]carbonyl}-10,11-dihydro-5H-pyrrolo[2,1-c]benzodiazepine-3-carboxamide]		4.27
